Tests used:
Type in all cases: cell-based
[1] = system: human liver cell organoids; experiment: Culturing liver cell organoids in absence of Matrigel; number of viable cells (CellTiter-Glo 3D); conditions: for number of viable cells, higher than control group: day 6 after seeding
Procedure: Human liver cell organoids, established from primary human liver cells, were supplemented with TrypLE Express (Thermo Fisher Scientific) and incubated at 37° C. for 5 minutes to dissociate them into single cells.
The cells were then collected and suspended in proliferation medium separately supplemented with 2, 5, 10, 20, or 50 μM TDI-011536 (CAS No. 2687970-96-1), and […] seeded into an ultra-low attachment 96-well plate at 2,000 cells/well. The preferred seeding density is 2,000 to 4,000 cells/well. In addition, cells in proliferation medium supplemented with no TDI-011536 were prepared as a control.
The proliferation medium was a medium consisting of a basal medium (Advanced DMEM/F-12 medium, 10 mM HEPES, 2 mM GlutaMAX, 100 U penicillin, 100 μg/mL streptomycin) supplemented with 10% afamin-Wnt-3A conditioned medium, 2% R-spondin 1 conditioned medium, 2% Noggin conditioned medium, and 20 ng/ml Oncostatin M.
On day 6 after seeding, the number of viable cells in the human liver cell organoids was measured using a commercially available kit (product name “CellTiter-Glo 3D,” Promega Corporation).

[2] = system: primary human liver cells (EpCAM-negative); experiment: Establishment of liver cell organoids in absence of Matrigel; conditions: for establishment of human liver cell organoids: proliferation medium with both 20 μM TDI-011536 and 20 ng/ml Oncostatin M
Procedure: Frozen primary human liver cells were suspended in Advanced DMEM/F-12 medium and thawed. Two types of primary human liver cells, Line 1 and Line 2, were used.
Subsequently, each of the thawed primary human liver cells was stained with an APC-labeled mouse anti-human EpCAM antibody, and EpCAM-negative cells were collected using a cell sorter. The collected cells were then suspended in proliferation medium supplemented with 20 μM TDI-011536 and seeded into an ultra-low attachment 96-well plate at 3,000 to 4,000 cells/well. The cells were then cultured to obtain liver cell organoids. In addition, for comparison, cells were also prepared using proliferation medium supplemented with no TDI-011536 or no Oncostatin M.
The passaging of liver cell organoids in the absence of Matrigel (registered trademark) was performed as follows. First, calcium ions and magnesium ions were chelated using 1 mM EDTA/phosphate buffered saline (PBS). Subsequently, the liver cell organoids were supplemented with TrypLE Express (Thermo Fisher Scientific) and incubated at 37° C. for 5 minutes to dissociate them into single cells.
The collected cells were then suspended in proliferation medium supplemented with 20 μM TDI-011536 and seeded into an ultra-low attachment 96-well plate at 2,000 cells/well.
The scale bar is 500 μm. FIG. 24 presents graphs showing the results of measuring changes in cell proliferation over time. In FIG. 24, the vertical axes of the graphs represent cell proliferation (fold increase), and the horizontal axes indicate the number of days of culture. In FIGS. 23 and 24, “OSM” represents Oncostatin M, and “Lats IN” represents the LATS kinase inhibitor (TDI-011536).

[3] = system: human small intestine-derived organoid; experiment: Culture of organoids in absence of Matrigel with LATS kinase inhibitor; cell number by ATP (CellTiter-Glo 3D); conditions: both Lats-IN (10 μM) and MYF01-37 added
Procedure: (§1) In this experimental example, a human small intestine-derived organoid and human large intestine-derived organoid established in the presence of Matrigel (registered trademark) were cultured in the absence of Matrigel (registered trademark) and in the presence of a LATS kinase inhibitor (final concentration: 10 μM), and their dynamics were observed. The procedure was the same as in Experimental Example 1, except that each organoid was cultured in the absence of Matrigel (registered trademark).
The upper left panel of FIG. 3 is a photograph of a control (Ctrl) human small intestine-derived organoid cultured in the absence of Lats-IN, and the upper center panel of FIG. 3 is a photograph of a human small intestine-derived organoid cultured in the presence of Lats-IN. The scale bar is 100 μm. […] The vertical axis of the graph represents luminescence intensity (relative value) indicating the amount of ATP present. […]
(§2) FIG. 8 presents graphs showing the results of measuring the proliferation of the human small intestine-derived and human large intestine-derived organoids in the absence of Lats-IN (Ctrl), in the presence of Lats-IN (Lats-IN), in the presence of Lats-IN and MYF01-37 (Lats-IN+MYF), and in the presence of MYF01-37 (MYF). The cell proliferation was measured by measuring ATP using a commercially available kit (product name “CellTiter-Glo 3D,” Promega Corporation). The vertical axis of the graph represents luminescence intensity (relative value) indicating the amount of ATP present. […]
(§3) FIG. 26 presents graphs showing the results of measuring cell number in each organoid after 6 days of culture by measuring ATP using a commercially available kit (product name “CellTiter-Glo 3D,” Promega Corporation). The vertical axis of the graph represents luminescence intensity (relative value) indicating the amount of ATP present.

[4] = system: human large intestine-derived organoid; experiment: as above; conditions: both Lats-IN (10 μM) and MYF01-37 added
Procedure: as §1
The lower left panel of FIG. 3 is a photograph of a control (Ctrl) human large intestine-derived organoid cultured in the absence of Lats-IN, and the lower center panel of FIG. 3 is a photograph of a human large intestine-derived organoid cultured in the presence of Lats-IN. The scale bar is 100 μm. The lower right panel of FIG. 3 is a graph showing the results of measuring cell number in the human large intestine-derived organoids cultured in the presence of the control (Ctrl) and Lats-IN. The vertical axis of the graph represents luminescence intensity (relative value) indicating the amount of ATP present. […]
as §2, §3

Molecule	number of viable cells, higher than control group ([1]; 20 μM)	number of viable cells, higher than control group ([1]; 50 μM)	number of viable cells (words, FIG. 22) ([1]; adding the LATS kinase inhibitor)	duration for which established organoids could be cultured ([2]; 20 μM TDI-011536 and Oncostatin M)	establishment of human liver cell organoids [2]	cell proliferation (ATP luminescence) when TEAD inhibited [3]	cell proliferation (ATP luminescence) when TEAD inhibited [4]
O=C(N=c1scc(CO)n1Cc1ccccc1)c1c[nH]c2ncccc12 [TDI-011536]	16 fold	17 fold	increase in the number of viable cells was observed	at least two months	successfully established	–	–
C=CC(=O)N1CCC(C)(Nc2cccc(C(F)(F)F)c2)C1 (centres unmarked) [MYF01-37]	–	–	–	–	–	inhibited	inhibited
Oncostatin M: cytokine of a cytokine family that binds to gp130 (protein, UniProt P13725 26-221, looked up) Oncostatin-M: AAIGSCSKEYRVLLGQLQKQTDLMQDTSRLLDPYIRIQGLDVPKLREHCRERPGAFPSEETLRGLGRRGFLQTLNATLGCVLHRLADLEQRLPKAQDLERSGLNIEDLEKLQMARPNILGLRNNIYCMAQLLDNSDTAEPTKAGRGASQPPTPTPASDAFQRKLEGCRFLHGYHRFMHSVGRVFSKWGESPNRSRR	–	–	–	–	successfully established	–	–

Source: US20250283049A1, “AGENT FOR CULTURING ORGANOID IN ABSENCE OF EXTRACELLULAR MATRIX” (KEIO UNIVERSITY, priority 2022, published 2025)
